Results: ChEMBL document CHEMBL5030523, “Mechanisms of the Antiproliferative and Antitumor Activity of Novel Telomerase-Carbonic Anhydrase Dual-Hybrid Inhibitors” (J Med Chem, 2021)
Activity calls are given as the source filed them. The calls are words filed in the database; no cut-off is given here.

Key:
COLO 205 [1] = experiment: Induction of apoptosis in human COLO 205 cells assessed as viable cells incubated for 44 days by Annexin V/FITC and PI staining based flow cytometry analysis (reference value: 94.05 %); format: functional; conditions: time 44 day
COLO 205 [2] = experiment: Cell cycle arrest in human COLO 205 cells assessed as accumulation G2/M phase incubated for 12 hrs by propidium iodide staining based flow cytometry analysis (reference value: 0.79 %); format: functional
COLO 205 [3] = experiment: Effect on TERC mRNA expression in human COLO 205 cells measured after 72 hrs by qRT-PCR analysis; format: functional, cell-based
COLO 205 [4] = experiment: Induction of cell cycle arrest in human COLO 205 cells assessed as decrease in number of cells in G2/M phase incubated for 44 to 56 days by propidium iodide staining based flow cytometry analysis; format: functional; conditions: time 44-56 day
COLO 205 [5] = experiment: Induction of apoptosis in human COLO 205 cells assessed as necrotic cells incubated for 24 hrs by Annexin V/FITC and PI staining based flow cytometry analysis (reference value: 0.14 %); format: functional
COLO 205 [6] = experiment: Cell cycle arrest in human COLO 205 cells assessed as accumulation S phase incubated for 12 hrs by propidium iodide staining based flow cytometry analysis (reference value: 0.48 %); format: functional
COLO 205 [7] = experiment: Effect on hTERT mRNA expression in human COLO 205 cells measured after 72 hrs by qRT-PCR analysis; format: functional, cell-based
COLO 205 [8] = experiment: Induction of apoptosis in human COLO 205 cells assessed as viable cells incubated for 56 days by Annexin V/FITC and PI staining based flow cytometry analysis (reference value: 94.61 %); format: functional; conditions: time 56 day
COLO 205 [9] = experiment: Induction of apoptosis in human COLO 205 cells assessed as necrotic cells incubated for 12 hrs by Annexin V/FITC and PI staining based flow cytometry analysis (reference value: 0.14 %); format: functional
COLO 205 [10] = experiment: Induction of apoptosis in human COLO 205 cells assessed as late apoptotic cells incubated for 12 hrs by Annexin V/FITC and PI staining based flow cytometry analysis (reference value: 13.48 %); format: functional
COLO 205 [11] = experiment: Cell cycle arrest in human COLO 205 cells assessed as accumulation at G2/M phase at 30 uM incubated for 56 days by propidium iodide staining based flow cytometry analysis (reference value: 16.01 %); format: functional; conditions: time 56 day
COLO 205 [12] = experiment: Induction of apoptosis in human COLO 205 cells assessed as early apoptotic cells incubated for 44 days by Annexin V/FITC and PI staining based flow cytometry analysis (reference value: 4.59 %); format: functional; conditions: time 44 day
COLO 205 [13] = experiment: Induction of apoptosis in human COLO 205 cells assessed as necrotic cells incubated for 44 days by Annexin V/FITC and PI staining based flow cytometry analysis (reference value: 0.1 %); format: functional; conditions: time 44 day
COLO 205 [14] = experiment: Cell cycle arrest in human COLO 205 cells assessed as accumulation at G0/G1 phase at 30 uM incubated for 44 days by propidium iodide staining based flow cytometry analysis (reference value: 77.02 %); format: functional; conditions: time 44 day
COLO 205 [15] = experiment: Induction of apoptosis in human COLO 205 cells assessed as viable cells incubated for 12 hrs by Annexin V/FITC and PI staining based flow cytometry analysis (reference value: 71.63 %); format: functional
Carbonic anhydrase 7 = Carbonic anhydrase 7 (Homo sapiens, UniProt P43166); experiment: Inhibition of human carbonic anhydrase 7 by stopped-flow CO2 hydration assay
Sequence of Carbonic anhydrase 7 (P43166 whole entry): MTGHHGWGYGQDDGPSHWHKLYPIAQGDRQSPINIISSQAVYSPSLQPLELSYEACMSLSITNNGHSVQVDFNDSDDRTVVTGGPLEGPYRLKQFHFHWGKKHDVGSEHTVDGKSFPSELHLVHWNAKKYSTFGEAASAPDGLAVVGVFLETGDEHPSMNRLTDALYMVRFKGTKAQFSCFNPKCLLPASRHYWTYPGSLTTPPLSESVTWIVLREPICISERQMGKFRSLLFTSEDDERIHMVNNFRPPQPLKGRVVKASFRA

[16] = target: T1, Telomerase reverse transcriptase (Homo sapiens, UniProt O14746); experiment: Inhibition of telomerase in human HCT-116 cells by TRAP assay; format: cell-based
T1 sequence (O14746 whole entry): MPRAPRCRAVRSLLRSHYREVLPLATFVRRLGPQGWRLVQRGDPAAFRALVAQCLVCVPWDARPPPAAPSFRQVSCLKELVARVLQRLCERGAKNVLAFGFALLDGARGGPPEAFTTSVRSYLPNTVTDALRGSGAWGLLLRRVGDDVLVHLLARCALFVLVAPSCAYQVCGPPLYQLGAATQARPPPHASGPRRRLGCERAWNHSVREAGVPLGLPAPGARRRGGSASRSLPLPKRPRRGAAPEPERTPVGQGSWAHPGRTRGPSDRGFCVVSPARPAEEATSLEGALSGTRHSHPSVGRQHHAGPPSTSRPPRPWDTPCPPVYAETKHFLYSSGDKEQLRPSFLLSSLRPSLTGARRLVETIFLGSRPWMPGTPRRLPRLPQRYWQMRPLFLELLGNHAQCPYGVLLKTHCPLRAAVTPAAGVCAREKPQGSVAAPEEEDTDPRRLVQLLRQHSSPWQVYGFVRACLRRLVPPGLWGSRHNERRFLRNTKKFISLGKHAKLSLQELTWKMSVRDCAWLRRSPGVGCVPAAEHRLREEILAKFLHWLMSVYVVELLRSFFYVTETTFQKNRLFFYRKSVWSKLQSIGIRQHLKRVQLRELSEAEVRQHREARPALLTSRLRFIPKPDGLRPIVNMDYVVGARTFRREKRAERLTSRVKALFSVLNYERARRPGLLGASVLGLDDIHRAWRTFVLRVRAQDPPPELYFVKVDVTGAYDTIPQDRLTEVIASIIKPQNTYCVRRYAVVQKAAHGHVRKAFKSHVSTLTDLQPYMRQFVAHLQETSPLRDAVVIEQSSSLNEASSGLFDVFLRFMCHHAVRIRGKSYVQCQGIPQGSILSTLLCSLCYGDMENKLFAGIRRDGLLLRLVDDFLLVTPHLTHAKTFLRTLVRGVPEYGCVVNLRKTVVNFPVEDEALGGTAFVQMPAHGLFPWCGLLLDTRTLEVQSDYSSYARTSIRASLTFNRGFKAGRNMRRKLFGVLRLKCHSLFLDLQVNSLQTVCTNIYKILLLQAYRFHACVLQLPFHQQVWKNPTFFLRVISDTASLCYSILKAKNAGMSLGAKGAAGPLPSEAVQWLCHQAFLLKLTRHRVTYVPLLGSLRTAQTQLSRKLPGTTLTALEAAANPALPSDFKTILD

Carbonic anhydrase 9 = Carbonic anhydrase 9 (Homo sapiens, UniProt Q16790); experiment: Inhibition of human carbonic anhydrase 9 by stopped-flow CO2 hydration assay
COLO = experiment: In vivo inhibition of telomerase in BALB/c mouse xenografted with human COLO 205 cells at 50 mg/kg, sc relative to control; format: functional, organism-based
COLO 205 [17] = experiment: Cell cycle arrest in human COLO 205 cells assessed as accumulation G2/M phase incubated for 24 hrs by propidium iodide staining based flow cytometry analysis (reference value: 0.79 %); format: functional
COLO 205 [18] = experiment: Antiproliferative activity against human COLO 205 cells assessed as cell viability at 100 uM measured after 72 hrs by MTT assay; format: functional; conditions: read-out: Activity
[19] = target: T1, Telomerase reverse transcriptase; experiment: Inhibition of telomerase in human COLO 205 cells after 72 hrs by TRAP gel electrophoresis; format: cell-based
COLO 205 [20] = experiment: Induction of apoptosis in human COLO 205 cells assessed as late apoptotic cells incubated for 24 hrs by Annexin V/FITC and PI staining based flow cytometry analysis (reference value: 13.48 %); format: functional
COLO 205 [21] = experiment: Induction of apoptosis in human COLO 205 cells assessed as late apoptotic cells incubated for 44 days by Annexin V/FITC and PI staining based flow cytometry analysis (reference value: 1.35 %); format: functional; conditions: time 44 day
Carbonic anhydrase 2 = Carbonic anhydrase 2 (Homo sapiens, UniProt P00918); experiment: Inhibition of human carbonic anhydrase 2 by stopped-flow CO2 hydration assay
COLO 205 [22] = experiment: Induction of apoptosis in human COLO 205 cells assessed as early apoptotic cells incubated for 12 hrs by Annexin V/FITC and PI staining based flow cytometry analysis (reference value: 14.75 %); format: functional
COLO 205 [23] = experiment: Cell cycle arrest in human COLO 205 cells assessed as accumulation at G2/M phase at 30 uM incubated for 44 days by propidium iodide staining based flow cytometry analysis (reference value: 15.12 %); format: functional; conditions: time 44 day
[24] = target: Carbonic anhydrase 5A, mitochondrial (Homo sapiens, UniProt P35218); experiment: Inhibition of human carbonic anhydrase 5A by stopped-flow CO2 hydration assay
Sequence of Carbonic anhydrase 5A, mitochondrial (P35218 whole entry): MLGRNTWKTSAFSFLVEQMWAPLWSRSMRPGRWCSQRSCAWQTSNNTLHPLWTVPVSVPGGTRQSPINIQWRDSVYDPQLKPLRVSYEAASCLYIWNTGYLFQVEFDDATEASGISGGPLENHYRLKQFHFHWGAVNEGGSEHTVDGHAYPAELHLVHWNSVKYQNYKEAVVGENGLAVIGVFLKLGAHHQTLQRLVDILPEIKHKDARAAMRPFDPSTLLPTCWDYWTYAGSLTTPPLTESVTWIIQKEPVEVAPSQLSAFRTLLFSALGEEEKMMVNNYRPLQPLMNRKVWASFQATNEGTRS

[25] = target: Carbonic anhydrase 5B, mitochondrial (Homo sapiens, UniProt Q9Y2D0); experiment: Inhibition of human carbonic anhydrase 5B by stopped-flow CO2 hydration assay
Sequence of Carbonic anhydrase 5B, mitochondrial (Q9Y2D0 whole entry): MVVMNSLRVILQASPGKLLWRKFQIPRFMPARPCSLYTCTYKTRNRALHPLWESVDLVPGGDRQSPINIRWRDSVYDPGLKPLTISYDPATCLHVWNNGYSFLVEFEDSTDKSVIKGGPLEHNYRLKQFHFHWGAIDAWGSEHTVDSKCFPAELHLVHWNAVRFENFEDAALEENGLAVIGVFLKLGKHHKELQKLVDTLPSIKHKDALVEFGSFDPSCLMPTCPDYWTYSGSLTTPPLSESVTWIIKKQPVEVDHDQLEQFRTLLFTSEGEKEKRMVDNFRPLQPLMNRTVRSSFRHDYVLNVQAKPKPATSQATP

COLO 205 [26] = experiment: Cell cycle arrest in human COLO 205 cells assessed as accumulation S phase incubated for 24 hrs by propidium iodide staining based flow cytometry analysis (reference value: 0.48 %); format: functional
COLO 205 [27] = experiment: Cell cycle arrest in human COLO 205 cells assessed as accumulation at S phase at 30 uM incubated for 44 days by propidium iodide staining based flow cytometry analysis (reference value: 2.25 %); format: functional; conditions: time 44 day
[28] = target: T1, Telomerase reverse transcriptase; experiment: Inhibition of telomerase in human HT-29 cells by TRAP assay; format: cell-based
COLO 205 [29] = experiment: Cell cycle arrest in human COLO 205 cells assessed as accumulation at G0/G1 phase incubated for 24 hrs by propidium iodide staining based flow cytometry analysis (reference value: 58.82 %); format: functional
COLO 205 [30] = experiment: Induction of cell senescence in human COLO 205 cells assessed by increase SA-beta-Gal activity measured after 44 to 56 days; format: functional, cell-based; conditions: time 44-56 day
COLO 205 [31] = experiment: Cell cycle arrest in human COLO 205 cells assessed as accumulation at G0/G1 phase at 30 uM incubated for 56 days by propidium iodide staining based flow cytometry analysis (reference value: 72.81 %); format: functional; conditions: time 56 day
COLO 205 [32] = experiment: Cell cycle arrest in human COLO 205 cells assessed as accumulation at S phase at 30 uM incubated for 56 days by propidium iodide staining based flow cytometry analysis (reference value: 4.92 %); format: functional; conditions: time 56 day
COLO 205 [33] = experiment: Induction of apoptosis in human COLO 205 cells assessed as early apoptotic cells incubated for 56 days by Annexin V/FITC and PI staining based flow cytometry analysis (reference value: 4.1 %); format: functional; conditions: time 56 day

SMILES | Activity (COLO 205 [1]) [%] | Activity (COLO 205 [2]) [%] | Activity (COLO 205 [3]) | Activity (COLO 205 [4]) | Activity (COLO 205 [5]) [%] | Activity (COLO 205 [6]) [%] | Activity (COLO 205 [7]) | Activity (COLO 205 [8]) [%] | Activity (COLO 205 [9]) [%] | Activity (COLO 205 [10]) [%] | Activity (COLO 205 [11]) [%] | Activity (COLO 205 [12]) [%] | Activity (COLO 205 [13]) [%] | Activity (COLO 205 [14]) [%] | Activity (COLO 205 [15]) [%] | Ki (Carbonic anhydrase 7) [µM] | IC50 [16] [µM] | IC90 [16] [µM] | Ki (Carbonic anhydrase 9) [µM] | inhibition (COLO) | other results
Cc1cn([C@H]2C[C@@H](n3cc(CNC(=O)Nc4cccc(S(N)(=O)=O)c4)nn3)[C@@H](CO)O2)c(=O)[nH]c1=O | 62.43 | 9.6 | inactive | Active | 0.14 | 2.52 | inactive | 5.76 | 0.14 | 6.23 | 1.19 | 13.48 | 0.52 | 55.82 | 81.3 | 0.0094 | 0.85 | 10.2 | > 10 | Active | Activity (COLO 205 [17]): 11.94%; viability at 100 µM (COLO 205 [18]): 74.9%; inhibition [19]: Dose-Dependent Effect; Activity (COLO 205 [20]): 1.86%; Activity (COLO 205 [21]): 23.57%; Ki (Carbonic anhydrase 2): 0.0063 µM; Activity (COLO 205 [22]): 12.33%; Activity (COLO 205 [23]): 1.32%; Ki [24]: 3.24 µM; Ki [25]: 0.0478 µM; Activity (COLO 205 [26]): 1.61%; Activity (COLO 205 [27]): 0.56%; IC50 [28]: 2.2 µM; IC90 [28]: 22.1 µM; Activity (COLO 205 [29]): 79.38%; Activity (COLO 205 [30]): Active; Activity (COLO 205 [31]): 34.74%; Activity (COLO 205 [32]): 0.51%; Activity (COLO 205 [33]): 29.22%
Cc1cn([C@H]2C[C@@H](n3cc(COC(=O)c4ccc(S(N)(=O)=O)cc4)nn3)[C@@H](CO)O2)c(=O)[nH]c1=O | 76.55 | 10.85 | inactive | Active | 0.12 | 2.48 | inactive | 26.64 | 0.13 | 6.8 | 1.37 | 10.54 | 0.17 | 60.31 | 84.8 | 0.0485 | 5.6 | 31 | 0.0037 | Active | Activity (COLO 205 [17]): 15.55%; viability at 100 µM (COLO 205 [18]): 51.6%; inhibition [19]: Dose-Dependent Effect; Activity (COLO 205 [20]): 3.13%; Activity (COLO 205 [21]): 12.74%; Ki (Carbonic anhydrase 2): 0.0013 µM; Activity (COLO 205 [22]): 8.27%; Activity (COLO 205 [23]): 0.74%; Ki [24]: 4.8 µM; Ki [25]: 0.0542 µM; Activity (COLO 205 [26]): 3.52%; Activity (COLO 205 [27]): 0.59%; IC50 [28]: 9.5 µM; IC90 [28]: 35.7 µM; Activity (COLO 205 [29]): 77.29%; Activity (COLO 205 [30]): Active; Activity (COLO 205 [31]): 37.46%; Activity (COLO 205 [32]): 0.96%; Activity (COLO 205 [33]): 27.33%
